Where two headings read alike, the source gives them in different places.
Columns and labels:
rgRSV224 virus = assay: Antiviral activity: rgRSV224 (GFP) replication in HeLa cells; type: cell-based, respiratory syncytial virus (RSV)
How it was run: (§1)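 Over 3 days at 37 °C, compound titrations (4-fold steps, nine dilutions) were tested on HeLa cells infected with rgRSV224 (MOI = 1), inhibition of GFP signal giving EC50. In parallel plates, ATP content of HeLa cells after 3-day exposure defined CC50.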

[1] = Cytotoxicity in HeLa cells (ATP content, ATPlite kit); type: cell-based; conditions: human
How it was run: as §1

[2] = human respiratory syncytial virus, HeLa, comparison table 5.3, antiviral RSV assay of Example 5.1
[3] = human respiratory syncytial virus, HeLa, 72 h, read-out: RSV HELA EC50, HeLa cells, rgRSV224 MOI = 1, GFP expression three days post-virus exposure, averaged data of several repeat experiments

Compound: COc1cc(C(=O)NC[C@](O)(c2cc(C(C)(C)O)c(F)c(-c3ccc(F)cc3)n2)C(F)(F)F)cc2cc(C)nnc12 [compound 234]
- EC50 (rgRSV224 virus; [2]): 0.0006 µM
- EC50 (rgRSV224 virus; read-out: RSV HELA EC50, HeLa cells, rgRSV224 MOI = 1, GFP expression three days post-virus exposure, averaged data of several repeat experiments): 0.00082 µM
- CC50 at 3 days ([1]; CC50): 23 µM
- CC50 at 3 days ([1]; TOX HELA CC50): 23 µM

Compound: COc1cc(C(=O)NC[C@](O)(c2cc(C(C)(C)NS(C)(=O)=O)c(F)c(-c3ccc(F)cc3)n2)C(F)(F)F)cc2cc(C)nnc12 [compound 237, (-)Methoxy-3-Methyl-N-{3,3,3-Trifluoro-2-[5-Fluoro-6-(4-Fluorophenyl)-4-{2-[(MethaneSulfonyl)Amino]propan-2-yl}Pyridin-2-yl]-2-Hydroxypropyl}Cinnoline-6-Carboxamide]
- EC50 (rgRSV224 virus; [3]): 0.0051 µM
- CC50 at 3 days ([1]; TOX HELA CC50): 51 µM

Compound: COc1cc(C(=O)NC[C@](O)(c2cc(C(C)(C)O)c(F)c(-c3ccc(F)c(C)c3)n2)C(F)(F)F)cc2cc(C)nnc12 [compound 238, (+)Methoxy-3-Methyl-N-{3,3,3-Trifluoro-2-[5-Fluoro-6-(4-Fluoro-3-Methylphenyl)-4-(2-Hydroxypropan-2-yl)Pyridin-2-yl]-2-Hydroxypropyl}Cinnoline-6-Carboxamide]
- EC50 (rgRSV224 virus; [3]): 0.0029 µM
- CC50 at 3 days ([1]; TOX HELA CC50): 23 µM

Compound: COc1cc(C(=O)NC[C@](O)(c2cc(C(C)(C)O)c(F)c(-c3ccc(F)c(F)c3)n2)C(F)(F)F)cc2cc(C)nnc12 [compound 239, (-)-N-{2-[6-(3,4-Difluorophenyl)-5-Fluoro-4-(2-Hydroxypropan-2-yl)Pyridin-2-yl]-3,3,3-Trifluoro-2-Hydroxypropyl}-8-Methoxy-3-Methylcinnoline-6-Carboxamide]
- EC50 (rgRSV224 virus; [3]): 0.0005 µM
- CC50 at 3 days ([1]; TOX HELA CC50): 19 µM

Compound: COc1cc(C(=O)NC[C@](O)(c2nc(-c3ccc(F)cc3)c(F)c(C(C)(C)O)c2F)C(F)(F)F)cc2cc(C)nnc12 [compound 240, (-)-N-{2-[3,5-Difluoro-6-(4-Fluorophenyl)-4-(2-Hydroxypropan-2-yl)Pyridin-2-yl]-3,3,3-Trifluoro-2-Hydroxypropyl}-8-Methoxy-3-Methylcinnoline-6-Carboxamide]
- EC50 (rgRSV224 virus; [3]): 0.0012 µM
- CC50 at 3 days ([1]; TOX HELA CC50): 46 µM

Compound: COc1cc(C(=O)NC[C@](O)(c2nc(-c3ccc(F)cc3)c(F)c(C(C)(C)NC(C)=O)c2F)C(F)(F)F)cc2cc(C)nnc12 [compound 241, (-)-N-{2-[4-(2-Acetamidopropan-2-yl)-3,5-Difluoro-6-(4-Fluorophenyl)Pyridin-2-yl]-3,3,3-Trifluoro-2-Hydroxypropyl}-8-Methoxy-3-Methylcinnoline-6-Carboxamide]
- EC50 (rgRSV224 virus; [3]): 0.0015 µM
- CC50 at 3 days ([1]; TOX HELA CC50): 50 µM

Compound: COc1cc(C(=O)NC[C@@](O)(c2nc(-c3ccc(F)cc3)c(F)c(C(C)(C)NC(C)=O)c2F)C(F)(F)F)cc2cc(C)nnc12 [compound 242, (+)-N-{2-[4-(2-Acetamidopropan-2-yl)-3,5-Difluoro-6-(4-Fluorophenyl)Pyridin-2-yl]-3,3,3-Trifluoro-2-Hydroxypropyl}-8-Methoxy-3-Methylcinnoline-6-Carboxamide]
- EC50 (rgRSV224 virus; [3]): 0.17 µM
- CC50 at 3 days ([1]; TOX HELA CC50): 48 µM

Compound: COc1cc(C(=O)NC[C@](O)(c2nc(-c3ccc(F)cc3)c(F)c(C(C)(C)NS(C)(=O)=O)c2F)C(F)(F)F)cc2cc(C)nnc12 [compound 243, (-)-N-{2-[3,5-Difluoro-6-(4-Fluorophenyl)-4-{2-[(Methanesulfoyl)Amino]Propan-2-yl}Pyridin-2-yl]-3,3,3-Trifluoro-2-Hydroxypropyl}-8-Methoxy-3-Methylcinnoline-6-Carboxamide]
- EC50 (rgRSV224 virus; [3]): 0.003 µM
- CC50 at 3 days ([1]; TOX HELA CC50): 45 µM

Compound: COc1cc(C(=O)NC[C@@](O)(c2nc(-c3ccc(F)cc3)c(F)c(C(C)(C)NS(C)(=O)=O)c2F)C(F)(F)F)cc2cc(C)nnc12 [compound 244, (+)-N-{2-[3,5-Difluoro-6-(4-Fluorophenyl)-4-{2-[(Methanesulfonyl)Amino]Propan-2-yl}Pyridin-2-yl]-3,3,3-Trifluoro-2-Hydroxypropyl}-8-Methoxy-3-Methylcinnoline-6-Carboxamide]
- EC50 (rgRSV224 virus; [3]): 0.058 µM
- CC50 at 3 days ([1]; TOX HELA CC50): 43 µM

Compound: COc1cc(C(=O)NC[C@](O)(c2nc(-c3ccc(F)cc3)c(Cl)c(C(C)(C)O)c2F)C(F)(F)F)cc2cc(C)nnc12 [compound 247, (-)-N-{2-[5-Chloro-3-Fluoro-6-(4-Fluorophenyl)-4-(2-Hydroxypropan-2-yl)Pyridin-2-yl]-3,3,3-Trifluoro-2-Hydroxypropyl}-8-Methoxy-3-Methylcinnoline-6-Carboxamide]
- EC50 (rgRSV224 virus; [3]): 0.0019 µM
- CC50 at 3 days ([1]; TOX HELA CC50): 51 µM

Compound: COc1cc(C(=O)NC[C@](O)(c2cc(C(C)(C)O)c(Cl)c(-c3ccc(F)cc3)n2)C2CC2)cc2cc(C)nnc12 [compound 251, N-{(-)[5-Chloro-6-(4-Fluorophenyl)-4-(2-Hydroxypropanyl)Pyridinyl]CyclopropylHydroxyethyl}-8-Methoxy-3-Methylcinnoline-6-Carboxamide]
- EC50 (rgRSV224 virus; [3]): 0.00053 µM
- CC50 at 3 days ([1]; TOX HELA CC50): 28 µM

Compound: COc1cc(C(=O)NC[C@](O)(c2cc(C(C)(C)O)c(F)c(-c3ccc(F)cc3)n2)C2CC2)cc2cc(C)nnc12 [compound 252, (-)-N-{2-Cyclopropyl-2-[5-Fluoro-6-(4-Fluorophenyl)-4-(2-Hydroxypropan-2-yl)Pyridin-2-yl]-2-Hydroxyethyl}-8-Methoxy-3-Methylcinnoline-6-Carboxamide]
- EC50 (rgRSV224 virus; [3]): 0.0003 µM
- EC50 (rgRSV224 virus; [2]): 0.0003 µM
- CC50 at 3 days ([1]; CC50): 38 µM
- CC50 at 3 days ([1]; TOX HELA CC50): 43 µM

Compound: Cc1cc2cc(C(=O)NC[C@](O)(c3cc(C(C)(C)O)c(Cl)c(-c4ccc(F)cc4)n3)C3CC3)cc(OC3CC3)c2nn1 [compound 264, (-)-N-{2-[5-Chloro-6-(4-Fluorophenyl)-4-(2-Hydroxypropan-2-yl)Pyridin-2-yl]-2-Cyclopropyl-2-Hydroxyethyl}-8-(Cyclopropyloxy)-3-Methylcinnoline-6-Carboxamide]
- EC50 (rgRSV224 virus; [3]): 0.00087 µM
- CC50 at 3 days ([1]; TOX HELA CC50): 32 µM

Compound: Cc1cc2cc(C(=O)NC[C@](O)(c3cc(C(C)(C)O)c(F)c(-c4ccc(F)cc4)n3)C3CC3)cc(OC3CC3)c2nn1 [compound 265, (-)-N-{2-Cyclopropyl-2-[5-Fluoro-6-(4-Fluorophenyl)-4-(2-Hydroxypropan-2-yl)Pyridin-2-yl]-2-Hydroxyethyl}-8-(Cyclopropyloxy)-3-Methylcinnoline-6-Carboxamide]
- EC50 (rgRSV224 virus; [3]): 0.00069 µM
- CC50 at 3 days ([1]; TOX HELA CC50): 39 µM

Compound: COc1cc(C(=O)NC[C@](O)(c2cc(C(C)(C)O)c(F)c(-c3ccc(F)cc3)n2)C(F)(F)F)cc2cc(C(F)F)nnc12 [compound 266, (-)(Difluoromethyl)-8-Methoxy-N-{3,3,3-Trifluoro-2-[5-Fluoro-6-(4-Fluorophenyl)-4-(2-Hydroxypropan-2-yl)Pyridin-2-yl]-2-Hydroxypropyl}Cinnoline-6-Carboxamide]
- EC50 (rgRSV224 virus; [3]): 0.0035 µM
- CC50 at 3 days ([1]; TOX HELA CC50): 25 µM

Compound: COc1cc(C(=O)NC[C@](O)(c2cc(C(C)(C)O)c(Cl)c(-c3ccc(F)cc3)n2)C(F)(F)F)cc2cc(C(F)F)nnc12 [compound 267, (-)-N-{2-[5-Chloro-6-(4-Fluorophenyl)-4-(2-Hydroxypropan-2-yl)Pyridin-2-yl]-3,3,3-Trifluoro-2-Hydroxypropyl}-3-(Difluoromethyl)-8-Methoxycinnoline-6-Carboxamide]
- EC50 (rgRSV224 virus; [3]): 0.003 µM
- CC50 at 3 days ([1]; TOX HELA CC50): 14 µM

Compound: COc1cc(C(=O)NC[C@](O)(c2cc(C(C)(C)O)c(Cl)c(-c3ccc(F)cc3)n2)C2CC2)cc2cc(C(F)F)nnc12 [compound 268, N-{(-)[5-Chloro-6-(4-Fluorophenyl)-4-(2-Hydroxypropanyl)Pyridinyl]CyclopropylHydroxyethyl}-3-(Difluoromethyl)-8-Methoxycinnoline-6-Carboxamide]
- EC50 (rgRSV224 virus; [3]): 0.00067 µM
- CC50 at 3 days ([1]; TOX HELA CC50): 18 µM

Compound: COc1cc(C(=O)NC[C@](O)(c2cc(C(C)(C)O)c(F)c(-c3ccc(F)cc3)n2)C2CC2)cc2cc(C(F)F)nnc12 [compound 269]
- EC50 (rgRSV224 virus; [3]): 0.0012 µM
- CC50 at 3 days ([1]; TOX HELA CC50): 20 µM

Compound: COc1cc(C(=O)NC[C@](O)(c2cc(C(C)(C)O)c(F)c(-c3ccc(F)c(F)c3)n2)C2CC2)cc2cc(C(F)F)nnc12 [compound 270, (-)-N-{2-Cyclopropyl-2-[6-(3,4-Difluorophenyl)-5-Fluoro-4-(2-Hydroxypropan-2-yl)Pyridin-2-yl]-2-Hydroxyethyl}-3-(Difluoromethyl)-8-Methoxycinnoline-6-Carboxamide]
- EC50 (rgRSV224 virus; [3]): 0.00084 µM
- CC50 at 3 days ([1]; TOX HELA CC50): 15 µM

Compound: COc1cc(C(=O)NC[C@](O)(c2cc(C(C)(C)O)c(F)c(-c3ccc(F)cc3)n2)C2CC2)cc2cc(C3CC3)nnc12 [compound 271, 3-Cyclopropyl-N-{(-)-2-Cyclopropyl-2-[5-Fluoro-6-(4-Fluorophenyl)-4-(2-Hydroxypropan-2-yl)Pyridin-2-yl]-2-Hydroxyethyl)-8-Methoxycinnoline-6-Carboxamide]
- EC50 (rgRSV224 virus; [3]): 0.0015 µM
- EC50 (rgRSV224 virus; [2]): 0.0015 µM
- CC50 at 3 days ([1]; CC50): 11 µM
- CC50 at 3 days ([1]; TOX HELA CC50): 11 µM

Compound: Cc1cnc2c(OC3CC3)cc(C(=O)NC[C@](O)(c3cc(C(C)(C)O)c(F)c(-c4ccc(F)cc4)n3)C(F)(F)F)cc2c1 [compound 272, (-)8-(Cyclopropyloxy)-3-Methyl-N-{(2S)-3,3,3-Trifluoro-2-[5-Fluoro-6-(4-Fluorophenyl)-4-(2-Hydroxypropan-2-yl)Pyridin-2-yl]-2-Hydroxypropyl}Quinoline-6-Carboxamide]
- EC50 (rgRSV224 virus; [3]): 0.0037 µM
- EC50 (rgRSV224 virus; [2]): 0.004 µM
- CC50 at 3 days ([1]; CC50): 17 µM
- CC50 at 3 days ([1]; TOX HELA CC50): 17 µM

Compound: COc1cc(C(=O)NC[C@](O)(c2cc(C(C)(C)O)c(F)c(-c3ccc(F)cc3)n2)C(F)(F)F)cc2cc(C)c(F)nc12 [compound 273, (-)Fluoro-8-methoxy-3-methyl-n-(3,3,3-trifluoro(5-fluoro-6-(4-fluorophenyl)-4-(2-hydroxypropanyl)pyridinyl)hydroxypropyl)quinoline-6-carboxamide]
- EC50 (rgRSV224 virus; [3]): 0.00381 µM
- CC50 at 3 days ([1]; TOX HELA CC50): 13 µM

— US20230203004A1, “RSV INHIBITING 3-SUBSTITUTED QUINOLINE AND CINNOLINE DERIVATIVES” (Janssen Sciences Ireland Unlimited Company, priority 2020, published 2023)
